Assay results from paper PMC7690921, “Synthesis and Biological Evaluation of Analogues of Butyrolactone I as PTP1B Inhibitors” (Marine Drugs, 2020).

Assays:
PTP1B = target: T1, PTP1B (Homo sapiens, UniProt P18031); test: PTP1B inhibitory assay (pNPP substrate); format: biochemical; details: for IC50: pNPP 1 mM, 37 °C, Mean ± SD (n = 4), read-out: IC50 against PTP1B
T1 sequence (P18031 1-435): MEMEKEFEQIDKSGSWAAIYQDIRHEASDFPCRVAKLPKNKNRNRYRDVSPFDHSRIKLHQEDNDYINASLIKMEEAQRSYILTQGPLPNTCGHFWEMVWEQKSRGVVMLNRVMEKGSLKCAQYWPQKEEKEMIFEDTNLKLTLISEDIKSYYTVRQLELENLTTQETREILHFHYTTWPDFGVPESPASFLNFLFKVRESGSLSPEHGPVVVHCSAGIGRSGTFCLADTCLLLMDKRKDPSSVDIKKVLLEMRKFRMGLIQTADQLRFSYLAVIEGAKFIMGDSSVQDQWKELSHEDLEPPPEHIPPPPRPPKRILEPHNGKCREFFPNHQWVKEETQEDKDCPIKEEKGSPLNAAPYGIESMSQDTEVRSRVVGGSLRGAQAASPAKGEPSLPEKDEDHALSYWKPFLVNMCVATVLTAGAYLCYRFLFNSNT
Procedure: The tested compounds at designated concentrations were solubilized in DMSO, and 2 μL samples was added to 96-well clear polystyrene plate. […] Then, 78 μL of an assay buffer (25 mM Hepes, 150 mM sodium chloride (NaCl), 0.1% bovine serum albumin (BSA), 3 mM dithiothreitol, 1 mM ethylenediaminetetraacetic acid) and 10 μL of the PTP1B (10 μg/mL) was added and incubated for 10 min at 37 °C. The screening was initiated by adding 10 μL p-nitrophenyl phosphate (pNPP), and the catalysis of pNPP (1 mM) was continuously monitored on SpectraMax 340 microplate reader (Molecular Devices, Sunnyvale, CA, USA) at 405 nm for 20 min at 37 °C. The slope of the linear portion of the kinetic curve generated from each well was used to determine the activity of PTP1B. The inhibition effect of the compound was represented by the percentage of the slope of the linear portion of its kinetic curve relative to that of the negative control (DMSO). The IC50 was calculated with Prism 8 software (Graphpad, San Diego, CA, USA) from the non-linear curve fitting of the percentage of inhibition (%inhibition) versus the inhibitor concentration [I] by using the following equation: %Inhibition = 100/(1 + [IC50/[I]] ^k), where k is the Hill coefficient.

IR HepG2 cells = test: Glucose consumed in insulin resistance model of HepG2 cells; format: cell-based; details: high glucose and high insulin stimulated HepG2; 24 h treatment
Procedure: HepG2 cells (Cell Bank of Chinese Academy of Sciences, Shanghai, China) were seeded in 96-well plates in normal Dulbecco’s Modified Eagle’ Medium (DMEM, 5.6 mM glucose) supplemented with 10% fetal bovine serum (FBS). The density of the cells in each plate was 1 × 10^4 cells/mL. The original medium was removed when the cells became adherent. For the control group, the medium was replaced with […]. The model of insulin resistance was established by stimulation with high glucose DMEM (30 mM glucose) with 10^−7 mol/L insulin for 48 h. Then, the cells were treated with drug-free or drug-containing DMEM (5.6 mM glucose) containing 0.2% BSA and […] 1 × 10^−9 mol/L insulin for 24 h. Glucose consumption was detected with the glucose oxidase method using a glucose assay kit (Cat#BC2500, Solarbio, Beijing, China).

RIN-m5f cell line = test: Cell proliferation assay (CCK-8), RIN-m5f; format: cell-based; details: CCK-8, 48 h
Procedure: The cytotoxic effect of the synthesized butenolides on RIN-m5f (CRL-11605, American Type Culture Collection, Manassas, VA, USA) and HepG2 cells was determined with a Cell Counting Kit 8 (CCK-8) kit (Dojindo, Tokyo, Japan). Cells were seeded into 96-well plates in DMEM with 10% FBS in a volume of 100 µL per well and cultured overnight at 37 °C. The density of the cells in each plate was 1 × 10^4 cells/mL. According to the manufacturer’s protocol, after treatment with DMSO or varying concentrations of BLs for 48 h, 10 µL of CCK-8 solution was added to each well and cells were incubated for 2 h at 37 °C. Measure the absorbance at 450 nm of each well on a SpectraMax 340 microplate reader.

α-glucosidase = target: α-glucosidase; design: method as in earlier work; details: cited from earlier work
[1] = design: method as in doi:10.1007/s00044-013-0659-4; details: read-out: IC50 antioxidant activities; cited from earlier work

SMILES | IC50 (PTP1B) [µM] | PTP1B inhibitory activity (in words) (PTP1B) | hypoglycemic effect (glucose consumed / glucose uptake) in IR HepG2 cells (IR HepG2 cells) | cytotoxicity to RIN-m5f cell line (proliferation) (RIN-m5f cell line) | IC50 (α-glucosidase) [µM] | IC50 [1] [µM]
COC(=O)C1(c2ccc(OCc3ccccc3)cc2)OC(=O)C(O)=C1c1ccc(O)cc1 (stereo not drawn) [BL-4] | 28.5 | strong PTP1B inhibitory activity | – | – | – | –
O=C1OC(Cc2ccc(OCc3ccccc3)cc2)C(c2ccc(O)cc2)=C1O (stereo not drawn) [BL-5] | – | strong PTP1B inhibitory activity | significant hypoglycemic effect | did not affect the proliferation | – | –
CC(C)=CCc1cc(CC2OC(=O)C(O)=C2c2ccc(O)cc2)ccc1OCc1ccccc1 (stereo not drawn) [BL-6] | 17.2 | strong PTP1B inhibitory activity | did not improve the glucose uptake | significant cytotoxicity | – | –
COC(=O)[C@]1(Cc2ccc(O)c(CC=C(C)C)c2)OC(=O)C(O)=C1c1ccc(O)cc1 [Butyrolactone I] | – | – | – | – | 52.2 | 51.4

More lines, main results first:

IC50 (PTP1B) [µM] | PTP1B inhibitory activity (in words) (PTP1B) | SMILES | hypoglycemic effect (glucose consumed / glucose uptake) in IR HepG2 cells (IR HepG2 cells) | cytotoxicity to RIN-m5f cell line (proliferation) (RIN-m5f cell line) | IC50 (α-glucosidase) [µM] | IC50 [1] [µM]
133 | – | CC(C)=CCc1cc(C2OC(=O)C(O)=C2c2ccc(O)cc2)ccc1O (stereo not drawn) [BL-2] | – | – | – | –
– | strong PTP1B inhibitory activity | CC(C)=CCc1cc(C2OC(=O)C(O)=C2c2ccc(O)cc2)ccc1OCc1ccccc1 (stereo not drawn) [BL-3] | significant hypoglycemic effect | did not affect the proliferation | – | –
